The test system of assay [1] is acyl CoA cholesterol acyltransferase. The settings on record: Korean Patent Application No. 10-2003-0080397; cited from earlier work.
The target in a further assay is T1, tyrosinase (Mus musculus, UniProt P11344).
T1 construct: disrupted with 0.1M phosphate buffer (containing 1% triton x-100); endogenous in cells; host or cells: cultured melanocytes (melan-a), cell lysate supernatant
T1 sequence (P11344 19-533): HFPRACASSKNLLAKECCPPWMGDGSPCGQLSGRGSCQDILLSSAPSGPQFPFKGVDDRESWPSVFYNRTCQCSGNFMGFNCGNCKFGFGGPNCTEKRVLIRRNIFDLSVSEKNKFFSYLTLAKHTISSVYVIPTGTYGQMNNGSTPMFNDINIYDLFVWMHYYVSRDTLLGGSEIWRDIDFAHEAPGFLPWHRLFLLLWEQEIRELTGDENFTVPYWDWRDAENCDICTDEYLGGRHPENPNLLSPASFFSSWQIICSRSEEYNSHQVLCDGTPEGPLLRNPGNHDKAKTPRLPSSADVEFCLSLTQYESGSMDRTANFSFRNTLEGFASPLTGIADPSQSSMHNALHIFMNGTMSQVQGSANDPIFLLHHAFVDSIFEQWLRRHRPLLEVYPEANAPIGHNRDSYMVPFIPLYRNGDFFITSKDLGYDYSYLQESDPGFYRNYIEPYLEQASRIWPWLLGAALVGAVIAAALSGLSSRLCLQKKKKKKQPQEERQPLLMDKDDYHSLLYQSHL
The assay is described as follows: Tyrosinase activity inhibition in melanocyte lysate (L-DOPA, absorbance 490 nm). It counts as biochemical. The note with it: melan-a cell lysate, 1 hour with various concentrations, absorbance at 490 nm (FIG. 3). The procedure: Melanocytes were cultured in the same manner as in the step 1 of Test Example 1.
The cells cultured in the step 1 were washed once with cold PBS, and then disrupted with 0.1M phosphate buffer (containing 1% triton x-100). Then, the cells were centrifuged at 1400 rpm for 20 minutes, and the cell supernatant was isolated. 40 μg of the protein thus prepared was mixed with various concentrations of manassantin B and allowed to react for 1 hour. The reaction material was treated with 2 mg/ml of L-DOPA solution and left to stand 37° C.

A further assay has as its system melan-a cells. The assay is described as follows: Inhibition of melanosome transfer at cell level (optical microscope observation). It counts as cell-based, mouse. The note with it: various concentrations, after 4 days, optical microscope (FIG. 1). The procedure: Melan-a Cells, Immortalized Mouse Melanocytes, Were cultured to a confluency of 90% in 10% fetal bovine serum-containing RPMI 1640 medium in a 10% CO2 incubator, while the medium was replaced with fresh medium at 3-day intervals.
The melan-a cells cultured in the step 1 were separated using 0.25% trypsin-EDTA and spread on a 6-well plate at a density of 3×10^5 cells/well. Then, the cells were left to stand for 24 hours.

Assay [2] relates to melan-a cells and SP-1 cells. The assay is described as follows: Inhibition of melanin synthesis in coculture of melanocytes and keratinocytes. Format: cell-based, mouse. The method, then:
Melanocytes were cultured in the same manner as in the step 1 of Test Example 1. Mouse keratinocytes SP-1 cells were cultured to a confluency of […] in 8% fetal bovine serum-containing s-MEM medium in a 10% CO2 incubator, while the medium was replaced with fresh medium at 3-days intervals.
The melan-a cells and SP-1 cells cultured in the step were separated with 0.25% Trypsin-EDTA and spread together on a 12-well plate at a ratio of 1:10 at cell densities of 1×10^4 cells/well for melan-a and 1×10^5 cells/well for SP-1. Then, the cells were left to stand for 24 hours. The cells were treated with manassantin B at various concentrations, and after 5 days, the cells were collected with 1N NaOH. The collected cells were measured for absorbance at 405 nm and measured for protein concentration using the Lowry method.

Assay [3] relates to melanophilin and myosin 5a. The experiment in a line: Inhibition of binding between melanophilin and myosin 5a (plate binding, chemiluminescence). The settings on record: his-GFP-mlphCT on nickel-coated plate, Flag-MyosinVa GT, chemiluminescence (FIG. 2). The text has this:
Proteins required in the test were produced in large amounts using a suitable system (E. coli) or baculovirus. Herein, the designed proteins essentially included domains known to be required for protein interaction and contained GST, His tag or flag tag such that the produced proteins could be easily purified and isolated. Each of a histidine tagged-GFP-melanophilin recombinant protein and a Flag-MyosinVa recombinant protein, which were to be used as bait proteins, were expressed in a baculovirus system, cells containing the proteins were disrupted, and then extracts were prepared. Flag-MyosinVa GT was prepared into an extract with PBS TG buffer solution, and then purified by flag-affinity chromatography.
The his-GFP-mlphCT protein prepared in the step 1 was bound to a nickel-coated plate through reaction. To the plate, binding partner Flag-MyosinVa GT was bound, and then an M2 antibody recognizing the flag was bound. The plate was subjected to color development reaction by chemiluminescence to measure the degree of binding between the proteins.

SMILES strings stand for the structures.

Usually inhibition stands for the share of the control response that was lost under treatment. High values mean a response far below the control, low ones a response near the control. On to `COc1ccc([C@@H](O)[C@@H](C)Oc2ccc([C@H]3O[C@H](c4ccc(O[C@H](C)[C@H](O)c5ccc6c(c5)OCO6)c(OC)c4)[C@H](C)[C@H]3C)cc2OC)cc1OC` [manassantin B], for which the “inhibition of activity of acyl CoA cholesterol acyltransferase” value in assay [1] was “inhibit the activity of acyl CoA cholesterol acyltransferase”. Further, the “inhibition of tyrosinase activity” value against tyrosinase is recorded as “did not directly inhibit”. The “configuration of the cells / distribution (transfer) of melanosomes” value with melan-a cells is reported as “melanosomes were gathered together around the nuclei”. Besides, in assay [2] (Mus musculus, 120 h, coculture melan-a:SP-1 1:10, 5 days, manassantin B concentration of 0.02 ppm), the inhibition at 0.02 ppm is roughly 50%. Further, the “inhibition of melanin synthesis” value in assay [2] (coculture melan-a:SP-1 1:10, various concentrations, 5 days (FIG. 4)) is reported as “inhibited melanin synthesis in a concentration-dependent manner”. Also, the “degree of binding between melanophilin and myosin 5a” value in assay [3] was “inhibited the binding”.
